Measurements taken from patent publication US6495591B1, “Fungal efflux pump inhibitors” (Essential Therapeutics, Inc., priority 1997, dated 2002).

Columns and labels:
Format in all cases: cell-based
[1] = system: YEM 15 C. albicans, CDR1CDR2 up; experiment: microbe, parasite or virus in culture; conditions: YEM 15, 24 hrs, 80% inhibition; for MIC of compound in the presence of fluconazole (+): 1/8 × MIC of fluconazole
[2] = system: YEM 24 C. albicans ΔCDR1, ΔCDR2; experiment: microbe, parasite or virus in culture; conditions: YEM 24, 24 hrs, 80% inhibition; for MIC of compound in the presence of fluconazole (+): 1/8 × MIC of fluconazole
[3] = system: Aspergillus fumigatus; experiment: FEPI MICs in combination with 1/4 the azole's MIC (Table 12); design: FEPI MIC (alone): unit not given here; conditions: for FEPI MIC with fluconazole, 60% Inh / FEPI MIC with fluconazole, 80% Inh: fluconazole 32 μg/ml (1/4 MIC); for FEPI MIC with fluconazole, 60% Inh / FEPI MIC with itraconazole, 60% Inh / FEPI MIC with ketoconazole, 60% Inh: 60% inhibition; for FEPI MIC with fluconazole, 80% Inh / FEPI MIC with itraconazole, 80% Inh / FEPI MIC with ketoconazole, 80% Inh / FEPI MIC (alone): 80% inhibition; for FEPI MIC with itraconazole, 60% Inh / FEPI MIC with itraconazole, 80% Inh: itraconazole 0.063 μg/ml (1/4 MIC); for FEPI MIC with ketoconazole, 60% Inh / FEPI MIC with ketoconazole, 80% Inh: ketoconazole 4 μg/ml (1/4 MIC); for FEPI MIC (alone): no azole, 35° C., CM Broth
Description: The combinations were tested against a series of Candida strain with known expression of efflux pumps or with complete deletion of all known pumps and Aspergillus fumigatus. Results are reported as minimum inhibitory concentration (MIC) of […] in the presence or absence of […]. A total of 27 distinct milbemycins were studied.

[4] = system: YEM 53 C. krusei; experiment: FEPI MIC with/without 1/8 fluconazole MIC at 24 hrs (Table 11); conditions: YEM 53, 24 hrs, 80% inhibition; for MIC of compound in the presence of fluconazole (+): 1/8 × MIC of fluconazole
[5] = system: YEM 17 C. glabrata, CgCDR up; conditions: 24 hrs, 80% inhibition; for MIC of compound in the presence of fluconazole (+): 1/8 × MIC of fluconazole
[6] = system: YEM 27 C. albicans ΔCDR1ΔCDR2 ΔBENΔFLU1; experiment: microbe, parasite or virus in culture; conditions: YEM 27, 24 hrs, 80% inhibition; for MIC of compound in the presence of fluconazole (+): 1/8 × MIC of fluconazole
[7] = system: YEM 13 C. albicans BEN up; experiment: microbe, parasite or virus in culture; conditions: YEM 13, 24 hrs, 80% inhibition; for MIC of compound in the presence of fluconazole (+): 1/8 × MIC of fluconazole
[8] = system: YEM 30 C. albicans wt; experiment: FEPI MIC with/without 1/8 fluconazole MIC at 24 hrs (Table 11); conditions: YEM 30, 24 hrs, 80% inhibition; for MIC of compound in the presence of fluconazole (+): 1/8 × MIC of fluconazole
[9] = system: YEM 51 C. glabrata wt; experiment: as above; conditions: YEM 51, 24 hrs, 80% inhibition; for MIC of compound in the presence of fluconazole (+): 1/8 × MIC of fluconazole

Row | Compound | MIC of compound in the presence of fluconazole (+) [1] | MIC of compound in the absence of fluconazole (−) [1] | MIC of compound in the presence of fluconazole (+) [2] | MIC of compound in the absence of fluconazole (−) [2] | FEPI MIC with fluconazole, 60% Inh [3] | FEPI MIC with fluconazole, 80% Inh [3] | FEPI MIC with itraconazole, 60% Inh [3] | FEPI MIC with itraconazole, 80% Inh [3] | FEPI MIC with ketoconazole, 60% Inh [3] | FEPI MIC with ketoconazole, 80% Inh [3] | FEPI MIC (alone) [3] | MIC of compound in the presence of fluconazole (+) [4] | MIC of compound in the absence of fluconazole (−) [4] | MIC of compound in the presence of fluconazole (+) [5] | MIC of compound in the absence of fluconazole (−) [5] | MIC of compound in the presence of fluconazole (+) [6] | MIC of compound in the absence of fluconazole (−) [6] | MIC of compound in the presence of fluconazole (+) [7] | MIC of compound in the absence of fluconazole (−) [7] | MIC of compound in the presence of fluconazole (+) [8] | other results
1 | C/C1=C\C[C@@H]2C[C@@H](C[C@]3(CC[C@H](C)[C@@H](C)O3)O2)OC(=O)[C@@H]2C=C(COC(=O)C(C)C)[C@@H](O)[C@H]3OC/C(=C\C=C\[C@H](C)C1)[C@]32O [Compound 20, 4a-O-isobutyryl milbemycin α1] | ≦0.03 | > 64 µg/mL | > 64 µg/mL | > 64 µg/mL | 2 | 4 | 0.25 | 8 | ≦0.063 | ≦0.063 | 64 | 4 µg/mL | > 64 µg/mL | 4 µg/mL | > 64 µg/mL | 64 µg/mL | > 64 µg/mL | 64 µg/mL | > 64 µg/mL | ≦0.06 | MIC of compound in the absence of fluconazole (−) [8]: > 64 µg/mL; MIC of compound in the presence of fluconazole (+) [9]: 2 µg/mL; MIC of compound in the absence of fluconazole (−) [9]: > 64 µg/mL
2 | C/C1=C\C[C@@H]2CC(C[C@]3(CC[C@H](C)[C@@H](C)O3)O2)OC(=O)c2cc(C)c(O)cc2/C(C)=C/C=C/[C@H](C)C1 [Compound 13, Milbemycin β3] | 8 µg/mL | > 64 µg/mL | > 64 µg/mL | > 64 µg/mL | 32 | >64 | 64 | >64 | 0.5 | 0.5 | >64 | > 64 µg/mL | > 64 µg/mL | 64 µg/mL | > 64 µg/mL | > 64 µg/mL | > 64 µg/mL | 64 µg/mL | > 64 µg/mL | 0.125 µg/mL | MIC of compound in the absence of fluconazole (−) [8]: > 64 µg/mL; MIC of compound in the presence of fluconazole (+) [9]: > 64 µg/mL; MIC of compound in the absence of fluconazole (−) [9]: > 64 µg/mL
3 | CO[C@H]1C[C@@]2(O)/C(C=O)=C/C=C/[C@H](C)C/C(C)=C/C[C@@H]3C[C@@H](C[C@]4(CC[C@H](C)[C@@H](C)O4)O3)OC(=O)[C@@H]2C=C1C [Compound 5, Milbemycin β1 aldehyde] | ≦0.03 | > 64 µg/mL | > 64 µg/mL | > 64 µg/mL | 4 | 64 | 0.5 | 32 | ≦0.063 | ≦0.063 | 64 | > 64 µg/mL | > 64 µg/mL | 0.125 µg/mL | > 64 µg/mL | 64 µg/mL | > 64 µg/mL | 64 µg/mL | > 64 µg/mL | ≦0.03 | MIC of compound in the absence of fluconazole (−) [8]: > 64 µg/mL; MIC of compound in the presence of fluconazole (+) [9]: 0.25 µg/mL; MIC of compound in the absence of fluconazole (−) [9]: > 64 µg/mL
4 | CCC(C)C1OC2(CC3CC(CC=C(C)C(OC4CC(OC)C(O)C(C)O4)C(C)C=CC=C4COC5C(O)C(C)=CC(C(=O)O3)C45O)O2)CC(O)C1C (centres unmarked) [Compound 23, Avermectin B2a monoglycoside] | 64 µg/mL | > 64 µg/mL | > 64 µg/mL | > 64 µg/mL | >64 | >64 | 64 | >64 | ≦0.063 | 8 | >64 | > 64 µg/mL | > 64 µg/mL | > 64 µg/mL | > 64 µg/mL | > 64 µg/mL | > 64 µg/mL | > 64 µg/mL | > 64 µg/mL | ≦0.03 | MIC of compound in the absence of fluconazole (−) [8]: > 64 µg/mL; MIC of compound in the presence of fluconazole (+) [9]: > 64 µg/mL; MIC of compound in the absence of fluconazole (−) [9]: > 64 µg/mL
5 | 8-Methyl-5,6-dihydroxymilbemycin β1 [Compound 19] | ≦0.03 | > 64 µg/mL | 32 µg/mL | > 64 µg/mL | 32 | 64 | 8 | >64 | ≦0.063 | ≦0.063 | 64 | 8 µg/mL | > 64 µg/mL | 64 µg/mL | > 64 µg/mL | 16 µg/mL | > 64 µg/mL | 16 µg/mL | > 64 µg/mL | ≦0.03 | MIC of compound in the absence of fluconazole (−) [8]: 8 µg/mL; MIC of compound in the presence of fluconazole (+) [9]: > 64 µg/mL; MIC of compound in the absence of fluconazole (−) [9]: > 64 µg/mL
6 | CCC(C)C1OC2(CC3CC(CC=C(C)C(O)C(C)C=CC=C4COC5C(O)C(C)=CC(C(=O)O3)C45O)O2)CC(O)C1C (stereo not drawn) [Compound 14, Avermectin β2a aglycone] | 2 µg/mL | > 64 µg/mL | > 64 µg/mL | > 64 µg/mL | 64 | >64 | >64 | >64 | 2 | 16 | >64 | > 64 µg/mL | > 64 µg/mL | 16 µg/mL | > 64 µg/mL | > 64 µg/mL | > 64 µg/mL | > 64 µg/mL | > 64 µg/mL | 4 µg/mL | MIC of compound in the absence of fluconazole (−) [8]: > 64 µg/mL; MIC of compound in the presence of fluconazole (+) [9]: 16 µg/mL; MIC of compound in the absence of fluconazole (−) [9]: > 64 µg/mL
7 | 8-Methyl-8-deoxymilbemycin β1 [Compound 24] | ≦0.03 | > 64 µg/mL | > 64 µg/mL | > 64 µg/mL | 64 | 64 | 64 | 64 | ≦0.063 | ≦0.063 | 64 | > 64 µg/mL | > 64 µg/mL | 1 µg/mL | > 64 µg/mL | 64 µg/mL | > 64 µg/mL | 64 µg/mL | > 64 µg/mL | ≦0.03 | MIC of compound in the absence of fluconazole (−) [8]: > 64 µg/mL; MIC of compound in the presence of fluconazole (+) [9]: 0.125 µg/mL; MIC of compound in the absence of fluconazole (−) [9]: > 64 µg/mL
